From publication PMC3229523, “Identification of Lactoferricin B Intracellular Targets Using an Escherichia coli Proteome Chip” (PLoS ONE, 2011)
Entries after “also recorded” stand apart in the source; their conditions may differ. Ends that are not written are not given here. * marks the point of attachment. Biotin = O=C1N[C@H]2[C@H](CS[C@H]2CCCCC(=O)*)N1

Key:
YqiA = assay: Fluorescence polarization assay, YqiA; format: binding, E. coli; conditions: 100 nM DyLight 549-labeled LfcinB; protein 0.025-0.4 µM; data not shown
Description: (§1) FP assays, investigations of the binding between two molecules in a homogeneous aqueous environment, were used to validate the identified 153 proteins. […] If a fluorophore only binds to a small molecule, such as peptide, the rotation of the complex is fast and the light emits in a different plane of polarization. Therefore, the degree of polarization is low. However, once a fluorophore binds to a large molecule, the bound complex is stimulated with polarized light. The light emits in the same polarized plane, and the complex is maintained in the same plane of polarization, causing an increase in the degree of polarization [22]–[24]. The amount of molecules binding to a fluorophore influences the degree of polarization. In this study, LfcinB was labeled with DyLight™ 549 as a reference value. Once the protein bound to LfcinB, like a fluorophore binds to a large molecule, a high degree of polarization is expected.
(§2) Before the assays, LfcinB was labeled with DyLight™ 549 and tested proteins were quantified with a Pierce® bicinchoninic acid (BCA™) protein assay (Thermo). To label the LfcinB, DyLight™ 549-NHS ester and LfcinB (68∶1, mole/mole) were mixed in PBS at room temperature for 1 h, a D-Salt™ polyacrylamide desalting column (Thermo) was used to remove excess dye and the labeling efficiency of the eluted solution was calculated. […]

Ppc = assay: Fluorescence polarization assay, Ppc; format: binding, E. coli; conditions: 100 nM DyLight 549-labeled LfcinB; protein 0.025-0.4 µM; data not shown
Description: as §1, §2

YhaN = assay: Fluorescence polarization assay, YhaN; format: binding, E. coli; conditions: 100 nM DyLight 549-labeled LfcinB; protein 0.025-0.4 µM; data not shown
Description: as §1, §2

Adi = assay: Fluorescence polarization assay, Adi; format: binding, E. coli; conditions: 100 nM DyLight 549-labeled LfcinB; protein 0.025-0.4 µM; data not shown
Description: as §1, §2

NrdD = assay: Fluorescence polarization assay, NrdD; format: binding, E. coli; conditions: 100 nM DyLight 549-labeled LfcinB; protein 0.025-0.4 µM; data not shown
Description: as §1, §2

MetL = assay: Fluorescence polarization assay, MetL; format: binding, E. coli
Description: as §1, §2

YnhE = assay: Fluorescence polarization assay, YnhE; format: binding, E. coli; conditions: 100 nM DyLight 549-labeled LfcinB; protein 0.025-0.4 µM; data not shown
Description: as §1, §2

nrdF knockout mutant = assay: Knockout assay, nrdF knockout mutant; format: cell-based, E. coli K-12; conditions: 32 µM LfcinB, LB medium, 37°C
Method: (§3) The E. coli K-12 BW25113 (isogenic parent) strain and the 16 knockout strains were obtained from the E. coli Genetic Resources at the Coli Genetic Stock Center (CGSC) at Yale University. The strains were inoculated into LB medium, and incubated at 37°C with shaking. After 16 h of incubation, the cultures were diluted to approximately 10^7 CFU/ml with LB medium. Thirty-two µM of LfcinB were then added to the cultures in a 96-well plate. PBS was used as a negative control. Cultures with LfcinB or PBS were then incubated at 37°C with shaking in a microplate reader and the growth was observed by measuring the OD595 value every 20 min for 7 h 20 min.

RecC = assay: Fluorescence polarization assay, RecC; format: binding, E. coli; conditions: 100 nM DyLight 549-labeled LfcinB; protein 0.025-0.4 µM; data not shown
Description: as §1, §2

MalP = assay: Fluorescence polarization assay, MalP; format: binding, E. coli; conditions: 100 nM DyLight 549-labeled LfcinB; protein 0.025-0.4 µM; data not shown
Description: as §1, §2

CyaA = system: CyaA
Description: as §1, §2

YdaU = assay: Fluorescence polarization assay, YdaU; format: binding, E. coli; conditions: 100 nM DyLight 549-labeled LfcinB; protein 0.025-0.4 µM; data not shown
Description: as §1, §2

[1] = system: other 15 knockout strains; assay: Knockout assay, other 15 knockout strains; format: cell-based, E. coli K-12; conditions: 32 µM LfcinB, LB medium, 37°C
Method: as §3

NrdF = assay: Fluorescence polarization assay, NrdF; format: binding, E. coli
Description: as §1, §2

E. coli K-12 MG1655 = assay: E. coli growth inhibition (growth curves, OD595); format: cell-based; conditions: 22.4 µM, approx. 10^7 CFU/ml, LB medium, 37°C with shaking, OD595 every 20 min for 7 h 20 min, PBS negative control, Figure 2
Method: The E. coli K-12 MG1655 strain was first inoculated into LB medium and incubated at 37°C with shaking for 16 h. After incubation, the culture was diluted to approximately 10^7 CFU/ml using LB medium. Then, 22.4 µM of N-terminal biotinylated LfcinB (Kelowna Inc.), LfcinB (Kelowna Inc.) or biotin (Thermo) were individually added to the diluted cultures in a 96-well plate. PBS was used as a negative control. Finally, each compound or PBS with E. coli was incubated at 37°C with shaking and the growth curves were observed by measuring the OD595 value every 20 min for 7 h 20 min in a microplate reader (Synergy 2, BioTek®).

YcaO = assay: Fluorescence polarization assay, YcaO; format: binding, E. coli; conditions: 100 nM DyLight 549-labeled LfcinB; protein 0.025-0.4 µM; data not shown
Description: as §1, §2

[2] = system: isogenic parent strain and the knockout strains; assay: Knockout assay, isogenic parent and knockout strains together; format: cell-based, E. coli K-12; conditions: 32 µM LfcinB, LB medium, 37°C
Method: as §3

## Lactoferricin B (Biotin-FKCRRWQWRMKKLGAPSITCVRRAF; ends and bridges not checked) [LfcinB]
YqiA
  binding to YqiA: confirmed to bind to LfcinB
Ppc
  binding to Ppc: confirmed to bind to LfcinB
YhaN
  binding to YhaN: confirmed to bind to LfcinB
Adi
  binding to Adi: confirmed to bind to LfcinB
NrdD
  binding to NrdD: confirmed to bind to LfcinB
MetL; 100 nM DyLight 549-labeled LfcinB, protein 0.025-0.4 µM, PBS, 0.005% BSA, 0.01% Triton X-100, room temperature, 1 h, Figure 5C
  degree of polarization vs BSA: higher polarization than the negative control
MetL; MetL, two-fold dilution 0.4 µM to 0.025 µM, 100 nM labeled LfcinB
  concentration dependence of polarization: increased with increasing concentrations of these 4 proteins
YnhE
  binding to YnhE: confirmed to bind to LfcinB
nrdF knockout mutant
  growth curve with vs without LfcinB: significant inhibited
RecC
  binding to RecC: confirmed to bind to LfcinB
MalP
  binding to MalP: confirmed to bind to LfcinB
CyaA; 100 nM DyLight 549-labeled LfcinB, protein 0.025-0.4 µM, PBS, 0.005% BSA, 0.01% Triton X-100, room temperature, 1 h, Figure 5D
  degree of polarization vs BSA: higher polarization than the negative control
CyaA; CyaA, two-fold dilution 0.4 µM to 0.025 µM, 100 nM labeled LfcinB
  concentration dependence of polarization: increased with increasing concentrations of these 4 proteins
YdaU
  binding to YdaU: confirmed to bind to LfcinB
[1]
  growth with LfcinB: the growth was inhibited by LfcinB
NrdF; 100 nM DyLight 549-labeled LfcinB, protein 0.025-0.4 µM, PBS, 0.005% BSA, 0.01% Triton X-100, room temperature, 1 h, Figure 5B
  degree of polarization vs BSA: higher polarization than the negative control
NrdF; NrdF, two-fold dilution 0.4 µM to 0.025 µM, 100 nM labeled LfcinB
  concentration dependence of polarization: increased with increasing concentrations of these 4 proteins
E. coli K-12 MG1655
  growth curves / inhibition of E. coli growth: exhibited the same inhibition of E. coli growth; also recorded: exhibit the same antibacterial activity
YcaO
  binding to YcaO: confirmed to bind to LfcinB
[2]; 0–1.5 h
  growth curves, initial part (0–1.5 h), with vs without LfcinB: higher growth curves than the strains grown without LfcinB
[2]; 2–4 h
  slopes of growth curves, middle part (2–4 h), with vs without LfcinB: lower than the slopes of the strains without LfcinB
